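A five-concentration, 48-hour dose response in 96-well plates underlies each endpoint, interpolated linearly between surrounding concentrations. Here, GI50 denotes the concentration required for 50% inhibition of growth. At the TGI there is no net growth.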 Where a SMILES comes first, the peptide text is derived from it. The star is where a group is joined. Boc = CC(C)(C)OC(=O)*; tBu = CC(C)(C)*
How the values were obtained:
Assay in all cases: NCI-60 cell line screen, 48 h
COLO 205 colon = test system: COLO 205 colon
HT29 colon = test system: HT29 colon
SN12C renal = test system: SN12C renal
PC-3 prostate = test system: PC-3 prostate
SF-295 CNS = test system: SF-295 CNS
MCF7 breast = test system: MCF7 breast
NCI-H522 lung = test system: NCI-H522 lung
KM12 colon = test system: KM12 colon
HCT-116 colon = test system: HCT-116 colon
MOLT-4 leukemia = test system: MOLT-4 leukemia

| SMILES | TGI (COLO 205 colon) [µM] | TGI (HT29 colon) [µM] | TGI (SN12C renal) [µM] | TGI (PC-3 prostate) [µM] | TGI (SF-295 CNS) [µM] | TGI (MCF7 breast) [µM] | TGI (NCI-H522 lung) [µM] | TGI (KM12 colon) [µM] | TGI (HCT-116 colon) [µM] | TGI (MOLT-4 leukemia) [µM] | GI50 (HT29 colon) [µM] | GI50 (SN12C renal) [µM] | GI50 (PC-3 prostate) [µM] | GI50 (SF-295 CNS) [µM] | GI50 (MOLT-4 leukemia) [µM] | GI50 (NCI-H522 lung) [µM] | GI50 (KM12 colon) [µM] | GI50 (HCT-116 colon) [µM] |
| --- | --- | --- | --- | --- | --- | --- | --- | --- | --- | --- | --- | --- | --- | --- | --- | --- | --- | --- |
| O=S(=O)(O)c1ccc2c(N=Nc3c(O)ccc4ccccc34)cccc2c1 | > 100 | > 100 | > 100 | > 100 | > 100 | > 100 | > 100 | > 100 | > 100 | – | – | – | – | – | – | – | – | – |
| CON(C)C(=O)C(C)NC(=O)OC(C)(C)C (stereo unspecified) | > 100 | > 100 | > 100 | > 100 | > 100 | > 100 | – | > 100 | > 100 | > 100 | – | – | – | – | – | – | – | – |
| O=C([O-])C1([n+]2c(-c3ccccc3)cc(-c3ccccc3)cc2-c2ccccc2)CC1 | – | > 100 | > 100 | > 100 | > 100 | > 100 | > 100 | – | > 100 | > 100 | – | – | – | – | – | – | – | – |
| O=C(/C=C/c1cccs1)c1ccc([N+](=O)[O-])cc1 | > 100 | > 100 | > 100 | > 100 | > 100 | > 100 | – | > 100 | > 100 | > 100 | – | – | – | – | – | – | – | – |
| N#C[C@H](C(=O)c1ccccc1F)c1nc2ccccc2[nH]1 | > 100 | > 100 | > 100 | > 100 | > 100 | > 100 | – | > 100 | > 100 | > 100 | – | – | – | – | – | – | – | – |
| COCCOCCOCCC(=O)NC1CC2CCC1(C)C2(C)C (stereo unspecified) | > 100 | > 100 | > 100 | > 100 | > 100 | > 100 | – | > 100 | > 100 | > 100 | – | – | – | – | – | – | – | – |
| C=CCCCCCCCCC(=O)ON(Cc1ccc(O)c(OC)c1)C(=O)C(F)(F)F | > 100 | > 100 | > 100 | – | > 100 | > 100 | – | > 100 | > 100 | > 100 | – | – | – | – | – | – | – | – |
| N/C(=N\N=C/c1cc([N+](=O)[O-])cc([N+](=O)[O-])c1O)NO | > 31.6 | > 100 | > 100 | – | > 100 | > 100 | > 100 | > 100 | > 100 | > 100 | – | – | – | – | – | – | – | – |
| COc1cccc(/C=N/[N-]C(N)=O)c1[O-].[OH3+].[Pd+2] | > 100 | > 100 | > 100 | – | > 100 | – | > 100 | > 100 | > 100 | > 100 | – | – | – | – | – | – | – | – |
| CCN(CC)C(=S)S | > 100 | – | > 100 | – | > 100 | – | 0.362 | > 100 | 19.7 | – | – | – | – | – | – | – | – | – |
| NC(N)=N/N=C\c1c(-c2ccccc2)nc2sccn12 | 24.6 | 28.6 | 28.8 | 28.5 | 27.9 | – | 24.6 | 27.5 | 28.5 | 51.7 | – | – | – | – | – | – | – | – |
| CC(=O)c1sc2c(c1O)c(=O)n(-c1ccccc1)c(=S)n2-c1ccccc1 | > 100 | > 100 | > 100 | – | > 100 | > 100 | > 100 | > 100 | – | > 100 | – | – | – | – | – | – | – | – |
| COc1ccc(/C=N/n2c(Cc3ccccc3)n[nH]c2=O)cc1 | > 100 | > 100 | > 100 | > 100 | > 100 | > 100 | – | > 100 | > 100 | > 100 | – | – | – | – | – | – | – | – |
| O=C1NC2=NN=C(c3ccc(Br)cc3)CN2NC12c1ccccc1-c1ccccc12 | > 100 | > 100 | > 100 | > 100 | > 100 | > 100 | > 100 | – | > 100 | – | – | – | – | – | – | – | – | – |
| O=C1c2ccccc2/C=C\C(c2ccccc2)=N/N1c1ccccc1Cl | – | 37 | > 100 | 28.6 | > 100 | 63.9 | 35.8 | 64.4 | > 100 | 77.1 | – | – | – | – | – | – | – | – |
| CC1=CC(=O)c2c(O)c3c(c(O)c2C1=O)C1C(O)C(C3=O)C23C(=O)c4c(O)c(C)cc(O)c4C(O)=C2C(=O)CC(O)C13 (stereo unspecified) | 4.76 | 7.05 | 5.55 | 10.2 | 2.3 | 14.6 | – | 2.5 | 2.5 | 13 | – | – | – | – | – | – | – | – |
| O=S(=O)(c1ccc2ccccc2c1)N1CCN(S(=O)(=O)c2ccc3ccccc3c2)CC1 | > 100 | > 100 | > 100 | > 100 | > 100 | > 100 | > 100 | > 100 | > 100 | – | – | – | – | – | – | – | – | – |
| CC(C)CCCC(C)[C@H]1CCC2[C@@H]3CCC4Cc5nc6c(nc5C[C@]4(C)C3CC[C@@]21C)CC1CC[C@@H]2C(CC[C@@]3(C)C2CC[C@@H]3O)[C@@]1(C)C6 (stereo partly specified) | > 100 | > 100 | > 100 | > 100 | > 100 | > 100 | – | > 100 | > 100 | > 100 | – | – | – | – | – | – | – | – |
| O=C1c2ccccc2-n2c1nc1ccc(Cl)cc1c2=O | > 100 | > 100 | > 100 | > 100 | > 100 | > 100 | – | > 100 | > 100 | > 100 | – | – | – | – | – | – | – | – |
| N=C(N)c1ccc(N=Nc2c(O)ccc3cc(O)ccc23)cc1 | > 100 | > 100 | – | > 100 | > 100 | > 100 | > 100 | > 100 | > 100 | > 100 | – | – | – | – | – | – | – | – |
| CCN1C(=O)N2C(OC)c3ccccc3C(Br)C2(OC)C1=O (stereo unspecified) | > 100 | – | > 100 | – | > 100 | – | > 100 | > 100 | – | > 100 | – | – | – | – | – | – | – | – |
| CCN(CC)C(=S)SSCCO | – | 30.8 | 32.2 | 28.1 | > 100 | – | 20.3 | 30.1 | 27.7 | 21.7 | 17 | 17.4 | 14.9 | 33.5 | 4.7 | 0.211 | 15 | 14.6 |
| CC(OC(C)(C)C)C(NC(=O)C(N)CCCCNC(=O)OC(C)(C)C)C(=O)NC(Cc1ccccc1)C(=O)O (stereo unspecified) (H-Lys(Boc)-Thr(tBu)-Phe-OH; configuration not given here) | > 100 | > 100 | > 100 | > 100 | > 100 | > 100 | – | > 100 | > 100 | > 100 | – | – | – | – | – | – | – | – |
| Nc1ncnc2c1ncn2CCOC(c1ccccc1)P(=O)(O)O (stereo unspecified) | > 100 | > 100 | > 100 | – | > 100 | – | > 100 | > 100 | > 100 | > 100 | – | – | – | – | – | – | – | – |

— PubChem BioAssay (NCI)
